Reference: US9957270B2, “Fused pyrimidine-based hydroxamate derivatives” (Agency for Science, Technology and Research, priority 2014, dated 2018)
Where two headings read alike, the source gives them in different places.

What was measured:
[1] = tested on: PANC-1; test: Anti-proliferative assay (cellular IC50), PANC-1; settings: Homo sapiens, PANC-1, read-out: In Vitro Cellular IC50 PANC-1
Description: (§1) Cells were cultivated at 37° C., 5% CO2 in media containing 10% FBS and 2 mM glutamine Cells were routinely monitored with MycoAlert™ PLUS Mycoplasma Detection Kit (Lonza Walkersville, Inc.) to make sure they were mycoplasma free. Antibiotics (100 U/mL of penicillin and 100 μg/mL of streptomycin) were only added to the media used for compound dilution and cells in 96-well assay plates.
(§2) For a typical screening experiment, cells (100 μL/well) are inoculated into 96 well microtiter plates at plating densities ranging from 2,000 to 30,000 cells/well depending on the doubling time of individual cell lines and assay linearity. […] Suspension cells are treated with test compounds immediately after cell inoculation.
(§3) Test compounds are serially diluted (3-fold or 4-fold, 8-concentration) using the same media and added to the plates (15 to 25 μL/well). After 72 h of cultivation, the plates are assayed for cell cytotoxicity/viability by using the following two methods.
(§4) Cells in plates are fixed with cold trichloroacetic acid (TCA) (50% w/v in DI water, 1/4 volume of the medium in each well), and incubated at 4° C. for 1 h (adherent cells) or 2 h (suspension cells). The plates are washed 5 times (tap water×3, DI water×2) and air-dried. SRB solution 0.4% (w/v) in 1% acetic acid is added to each well (60 μL/well) and the plates are incubated at room temperature for 30 min, then washed with 1% acetic acid solution 4 times, and air-dried.
(§5) The plates are added CellTiter-Glo® Reagent (95 μL/well) and read the luminescence on a BioTek H4 reader per manufacture's protocol.
(§6) The raw data are processed using BioTek's Software Gen5 (v2.03.01) to generate inhibitory IC50 values.

[2] = tested on: ACHN; test: Anti-proliferative assay (cellular IC50), ACHN; settings: Homo sapiens, read-out: In Vitro Cellular IC50 ACHN
Description: as §1, §2, §3, §4, §5, §6

[3] = tested on: RPMI-8226; test: Anti-proliferative assay (cellular IC50), RPMI-8226; settings: Homo sapiens, RPMI-8226, read-out: In Vitro Cellular IC50 RPMI-8226
Description: as §1, §2, §3, §4, §5, §6

[4] = target: T1, p110α(E545K)/p85α (Homo sapiens, UniProt P42336, E545K); test: Kinase enzyme assay (ADP-Glo), PI3Kα (E545K); format: biochemical; settings: read-out: In Vitro Enzymatic IC50 PI3Kα (E545K)
T1 construct: purchased SignalChem P27-15H

[5] = tested on: SK-HEP1; test: Anti-proliferative assay (cellular IC50), SK-HEP1; settings: Homo sapiens, SK-HEP1, read-out: In Vitro Cellular IC50 SK-HEP1
Description: as §1, §2, §3, §4, §5, §6

[6] = tested on: MDA-MB-468; test: Anti-proliferative assay (cellular IC50), MDA-MB-468; settings: Homo sapiens, MDA-MB-468, read-out: In Vitro Cellular IC50 MDA-MB-468
Description: as §1, §2, §3, §4, §5, §6

[7] = tested on: PC-3; test: Anti-proliferative assay (cellular IC50), PC-3; settings: Homo sapiens
Description: as §1, §2, §3, §4, §5, §6

[8] = tested on: MV-4-11; test: cells; settings: Homo sapiens
Description: as §1, §2, §3, §4, §5, §6

[9] = tested on: MDA-MB-436; test: Anti-proliferative assay (cellular IC50), MDA-MB-436; settings: Homo sapiens, MDA-MB-436, read-out: In Vitro Cellular IC50 MDA-MB-436
Description: as §1, §2, §3, §4, §5, §6

[10] = tested on: MCF7; test: Anti-proliferative assay (cellular IC50), MCF7; settings: Homo sapiens
[11] = tested on: HL-60; test: Anti-proliferative assay (cellular IC50), HL-60; settings: Homo sapiens, HL-60, read-out: In Vitro Cellular IC50 HL-60
Description: as §1, §2, §3, §4, §5, §6

[12] = tested on: Ramos; test: Anti-proliferative assay (cellular IC50), Ramos; settings: Homo sapiens, read-out: In Vitro Cellular IC50 Ramos
Description: as §1, §2, §3, §4, §5, §6

[13] = tested on: MOLT-4; test: Anti-proliferative assay (cellular IC50), MOLT-4; settings: Homo sapiens
[14] = tested on: BT474; test: Anti-proliferative assay (cellular IC50), BT474; settings: Homo sapiens, BT-474, read-out: In Vitro Cellular IC50 BT474
Description: as §1, §2, §3, §4, §5, §6

[15] = tested on: 4T1; test: cells; settings: Mus musculus, 4T1, read-out: In Vitro Cellular IC50 4T1
Description: as §1, §2, §3, §4, §5, §6

[16] = tested on: U87 MG; test: Anti-proliferative assay (cellular IC50), U87 MG; settings: Homo sapiens, U-87 MG, read-out: In Vitro Cellular IC50 U87 MG
Description: as §1, §2, §3, §4, §5, §6

[17] = tested on: HCT 116; test: cells; settings: Homo sapiens
Description: as §1, §2, §3, §4, §5, §6

[18] = tested on: K-562; test: Anti-proliferative assay (cellular IC50), K-562; settings: Homo sapiens
Description: as §1, §2, §3, §4, §5, §6

[19] = tested on: BxPC-3; test: Anti-proliferative assay (cellular IC50), BxPC-3; settings: Homo sapiens, BXPC-3, read-out: In Vitro Cellular IC50 BxPC-3
Description: as §1, §2, §3, §4, §5, §6

[20] = tested on: SUP-B15; test: Anti-proliferative assay (cellular IC50), SUP-B15; settings: Homo sapiens, SUP-B15, read-out: In Vitro Cellular IC50 SUP-B15
Description: as §1, §2, §3, §4, §5, §6

[21] = tested on: Pfeiffer; test: Anti-proliferative assay (cellular IC50), Pfeiffer; settings: Homo sapiens, read-out: In Vitro Cellular IC50 Pfeiffer
Description: as §1, §2, §3, §4, §5, §6

[22] = tested on: A375; test: Anti-proliferative assay (cellular IC50), A375; settings: Homo sapiens, A-375, read-out: In Vitro Cellular IC50 A375
Description: as §1, §2, §3, §4, §5, §6

[23] = tested on: COLO 205; test: cells; settings: Homo sapiens
Description: as §1, §2, §3, §4, §5, §6

[24] = tested on: MDA-MB-231; test: Anti-proliferative assay (cellular IC50), MDA-MB-231; settings: Homo sapiens, MDA-MB-231, read-out: In Vitro Cellular IC50 MDA-MB-231
Description: as §1, §2, §3, §4, §5, §6

[25] = tested on: NCI-H522; test: Anti-proliferative assay (cellular IC50), NCI-H522; settings: Homo sapiens, NCI-H522, read-out: In Vitro Cellular IC50 NCI-H522
Description: as §1, §2, §3, §4, §5, §6

[26] = tested on: HepG2; test: Anti-proliferative assay (cellular IC50), HepG2; settings: Homo sapiens
Description: as §1, §2, §3, §4, §5, §6

[27] = tested on: PC-3 cells; test: Caspase activity assay, PC-3 cells; format: cell-based, human; settings: maximal caspase activity at 48 h
Description: Cells are cultivated and treated with test compounds in 96-well plates as described in the above Cell Culture and Anti-Proliferative Assays section. […] The incubation time can be extended up to overnight (18 h) if the Caspase activity is low. Staurosporine is used as positive control.
Y Axis is expressed as Mean±SD if applicable.

[28] = PC-3, 72 h, read-out: In Vitro Cellular IC50 PC-3
[29] = PC-3, read-out: In Vitro Cellular IC50 PC-3
[30] = MV4-11, 72 h, read-out: In Vitro Cellular IC50 MV-4-11
[31] = MV4-11, read-out: In Vitro Cellular IC50 MV-4-11
[32] = MCF7, 72 h, read-out: In Vitro Cellular IC50 MCF7
[33] = MCF7, read-out: In Vitro Cellular IC50 MCF7
[34] = MOLT-4, 72 h, read-out: In Vitro Cellular IC50 MOLT-4
[35] = MOLT-4, read-out: In Vitro Cellular IC50 MOLT-4
[36] = HCT-116, 72 h, read-out: In Vitro Cellular IC50 HCT 116
[37] = HCT-116, read-out: In Vitro Cellular IC50 HCT 116
[38] = K562, 72 h, read-out: In Vitro Cellular IC50 K-562
[39] = K562, read-out: In Vitro Cellular IC50 K-562
[40] = COLO 205, 72 h, read-out: In Vitro Cellular IC50 COLO 205
[41] = COLO 205, read-out: In Vitro Cellular IC50 COLO 205
[42] = HepG2, 72 h, read-out: In Vitro Cellular IC50 HepG2
[43] = HepG2, read-out: In Vitro Cellular IC50 HepG2

T1 sequence (P42336 whole entry E545K): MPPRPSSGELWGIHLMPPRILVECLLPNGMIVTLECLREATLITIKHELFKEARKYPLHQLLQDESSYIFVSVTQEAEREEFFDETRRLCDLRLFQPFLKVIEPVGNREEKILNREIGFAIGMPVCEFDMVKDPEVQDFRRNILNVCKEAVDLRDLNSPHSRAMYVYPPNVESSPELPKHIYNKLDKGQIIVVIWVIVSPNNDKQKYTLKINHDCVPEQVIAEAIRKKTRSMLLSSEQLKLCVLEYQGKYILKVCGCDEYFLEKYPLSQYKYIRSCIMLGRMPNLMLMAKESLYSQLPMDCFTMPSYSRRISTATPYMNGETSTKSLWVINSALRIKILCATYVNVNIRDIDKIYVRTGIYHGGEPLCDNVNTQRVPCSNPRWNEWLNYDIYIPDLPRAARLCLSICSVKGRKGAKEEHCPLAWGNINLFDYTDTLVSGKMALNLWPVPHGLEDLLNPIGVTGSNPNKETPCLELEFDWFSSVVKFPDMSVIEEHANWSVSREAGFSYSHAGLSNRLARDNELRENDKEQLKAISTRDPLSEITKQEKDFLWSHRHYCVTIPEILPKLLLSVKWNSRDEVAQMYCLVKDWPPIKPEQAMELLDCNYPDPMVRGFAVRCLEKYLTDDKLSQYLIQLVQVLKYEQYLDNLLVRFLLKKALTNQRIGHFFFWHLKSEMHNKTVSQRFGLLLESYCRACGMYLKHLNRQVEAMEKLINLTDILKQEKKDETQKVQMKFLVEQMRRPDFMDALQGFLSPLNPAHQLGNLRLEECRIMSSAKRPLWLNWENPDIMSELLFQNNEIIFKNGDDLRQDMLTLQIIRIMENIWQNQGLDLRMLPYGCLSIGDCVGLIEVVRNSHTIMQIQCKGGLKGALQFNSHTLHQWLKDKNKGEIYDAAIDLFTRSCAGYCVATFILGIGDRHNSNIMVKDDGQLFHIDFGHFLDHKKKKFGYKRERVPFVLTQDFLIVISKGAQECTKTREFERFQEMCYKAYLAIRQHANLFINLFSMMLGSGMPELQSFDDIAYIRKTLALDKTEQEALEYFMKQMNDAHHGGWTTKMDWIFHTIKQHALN
T1 sequence (P27986 whole entry partner): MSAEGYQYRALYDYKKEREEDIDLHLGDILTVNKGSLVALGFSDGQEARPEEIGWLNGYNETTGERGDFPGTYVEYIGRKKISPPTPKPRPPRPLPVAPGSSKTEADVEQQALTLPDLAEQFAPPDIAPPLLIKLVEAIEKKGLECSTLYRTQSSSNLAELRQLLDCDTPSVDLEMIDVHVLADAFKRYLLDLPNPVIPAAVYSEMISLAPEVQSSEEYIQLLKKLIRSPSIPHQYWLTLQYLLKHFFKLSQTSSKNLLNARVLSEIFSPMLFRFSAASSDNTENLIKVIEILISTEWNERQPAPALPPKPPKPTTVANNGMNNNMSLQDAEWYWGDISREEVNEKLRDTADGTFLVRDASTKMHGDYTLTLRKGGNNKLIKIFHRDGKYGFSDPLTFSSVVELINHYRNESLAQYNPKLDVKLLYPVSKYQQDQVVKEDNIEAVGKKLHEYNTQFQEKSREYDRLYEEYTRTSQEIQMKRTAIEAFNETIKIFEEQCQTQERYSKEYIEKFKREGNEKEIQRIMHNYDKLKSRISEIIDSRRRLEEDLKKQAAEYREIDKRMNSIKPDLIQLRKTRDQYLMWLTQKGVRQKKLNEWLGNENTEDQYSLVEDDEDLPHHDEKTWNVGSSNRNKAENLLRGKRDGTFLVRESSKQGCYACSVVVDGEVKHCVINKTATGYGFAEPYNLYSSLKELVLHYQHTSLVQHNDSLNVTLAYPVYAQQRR

IC50 [1] | IC50 [2] | IC50 [3] | IC50 [5] | IC50 [6] | IC50 [7, 28] | IC50 [7, 29] | IC50 [8, 30] | IC50 [8, 31] | IC50 [9] | IC50 [10, 32] | IC50 [10, 33] | IC50 [11] | IC50 [12] | IC50 [13, 34] | IC50 [13, 35] | IC50 [14] | IC50 [15] | IC50 [16] | IC50 [17, 36] | Compound | other results
2000 to 10000 nM | 2000 to 10000 nM | 500 to 2000 nM | 500 to 2000 nM | < 500 nM | 500 to 2000 nM | 500 to 2000 nM | 500 to 2000 nM | 500 to 2000 nM | 2000 to 10000 nM | < 500 nM | < 500 nM | 500 to 2000 nM | 500 to 2000 nM | 500 to 2000 nM | 500 to 2000 nM | < 500 nM | 2000 to 10000 nM | 2000 to 10000 nM | 500 to 2000 nM | CCn1c(CN(C)Cc2ccc(C(=O)NO)cc2)nc2c(N3CCOCC3)nc(-c3cnc(N)nc3)nc21 [compound 7] | IC50 [4]: 10 to 100 nM; IC50 [17, 37]: 500 to 2000 nM; IC50 [18, 38]: 500 to 2000 nM; IC50 [18, 39]: 500 to 2000 nM; IC50 [19]: 500 to 2000 nM; IC50 [20]: < 500 nM; IC50 [21]: < 500 nM; IC50 [22]: 2000 to 10000 nM; IC50 [23, 40]: 500 to 2000 nM; IC50 [23, 41]: 500 to 2000 nM; IC50 [24]: 2000 to 10000 nM; IC50 [25]: 2000 to 10000 nM; IC50 [26, 42]: 500 to 2000 nM; IC50 [26, 43]: 500 to 2000 nM
500 to 2000 nM | 500 to 2000 nM | < 500 nM | 500 to 2000 nM | 500 to 2000 nM | 500 to 2000 nM | 500 to 2000 nM | < 500 nM | < 500 nM | 500 to 2000 nM | 500 to 2000 nM | 500 to 2000 nM | < 500 nM | < 500 nM | < 500 nM | < 500 nM | 500 to 2000 nM | 500 to 2000 nM | 500 to 2000 nM | < 500 nM | CC(C)n1cnc2c(-c3cccc(OCCCC(=O)NO)c3)nc(N3CCOCC3)nc21 [compound 1] | IC50 [4]: 1000 to 10000 nM; Induction of caspase activity (comparison) [27]: more potent than vorinostat; IC50 [17, 37]: < 500 nM; IC50 [18, 38]: 500 to 2000 nM; IC50 [18, 39]: 500 to 2000 nM; IC50 [19]: 500 to 2000 nM; IC50 [20]: < 500 nM; IC50 [21]: < 500 nM; IC50 [22]: 500 to 2000 nM; IC50 [23, 40]: 500 to 2000 nM; IC50 [23, 41]: 500 to 2000 nM; IC50 [24]: 500 to 2000 nM; IC50 [25]: 500 to 2000 nM; IC50 [26, 42]: 500 to 2000 nM; IC50 [26, 43]: 500 to 2000 nM
500 to 2000 nM | 500 to 2000 nM | 2000 to 10000 nM | 2000 to 10000 nM | 2000 to 10000 nM | 500 to 2000 nM | 500 to 2000 nM | 500 to 2000 nM | 500 to 2000 nM | 500 to 2000 nM | < 500 nM | < 500 nM | 500 to 2000 nM | 2000 to 10000 nM | < 500 nM | < 500 nM | < 500 nM | 2000 to 10000 nM | 2000 to 10000 nM | 500 to 2000 nM | CS(=O)(=O)N1CCN(Cc2cc3nc(-c4cccc5[nH]ncc45)nc(N4CCOCC4)c3s2)CC1 [GDC-0941, reference compound] | Induction of caspase activity (comparison) [27]: very weak activity; IC50 [17, 37]: 2000 to 10000 nM; IC50 [18, 38]: > 10000 nM; IC50 [18, 39]: > 10000 nM; IC50 [19]: 500 to 2000 nM; IC50 [20]: 2000 to 10000 nM; IC50 [21]: < 500 nM; IC50 [22]: 500 to 2000 nM; IC50 [23, 40]: 500 to 2000 nM; IC50 [23, 41]: 500 to 2000 nM; IC50 [24]: > 10000 nM; IC50 [25]: > 10000 nM; IC50 [26, 42]: > 10000 nM; IC50 [26, 43]: > 10000 nM
